Key:
[1] = tested on: ouabain-induced arrhythmia model; experiment: Ouabain-induced arrhythmia model in guinea pigs; format: in vivo, guinea pigs (Hartley strain); settings: dose 3 mg/kg i.v. immediately before ouabain infusion 3 μg/0.1 ml/min
From the text: After guinea pigs (Hartley strain, age 6 weeks) were anesthetized with urethane, induction electrodes were attached to the hind limbs and fore limbs, and standard 2-lead electrocardiograms were monitored with an animal electrocardiogram analysis system (ECG-01, Japan Energy). After confirming that the waveforms of the electrocardiogram and heart rate were within the normal range, an incision was made in the epidermis of the neck followed by inserting a breathing tube into the trachea and cannulating a polyethylene tube into the left external jugular vein and left common carotid artery.
Immediately after administering a compound of the present invention dissolved in a physiological saline solution into the right external jugular vein, ouabain was continuously infused at 3 μg/0.1 ml/min through the cannulated polyethylene tube into the left external jugular vein using a syringe pump (Atom Syringe Pump 1235 (trade name), Atom Medical Corporation).
In addition, the polyethylene tube cannulated in the left common carotid artery was connected to a pressure transducer (P23XL, Gould Electronics), and fed to a pressure processor signal conditioner (TA-11, Gould Electronics) to record blood pressure and heart rate on a thermal plate recorder.
The results were assessed by comparing the dose (μg/kg) of ouabain administered until the appearance of arrhythmia and occurrence of cardiac arrest (arrhythmia is not induced even if a large dose of ouabain is administered if antiarrhythmic effects are high). Furthermore, a solvent dose group (administered only physiological saline in an amount equal to that of the test drug groups), and a positive control group administered a typical antiarrhythmic disopyramide phosphate (physiological saline solution), were also provided.

[2] = tested on: model of myocardial ischemia-reperfusion injury; experiment: Model of myocardial ischemia-reperfusion injury in rats; format: in vivo; settings: 3 mg/kg i.v. 5 minutes before 5 minutes coronary ligation, 8 rats per group; for Incidence of Ventricular Fibrillation (%) / Incidence of Ventricular Tachycardia (%): monitored 5 minutes after reperfusion; for Mortality Rate (%): then reperfusion
[3] = tested on: model of myocardial ischemia reperfusion injury; experiment: Model of myocardial ischemia-reperfusion injury in dogs; format: in vivo; settings: 3 mg/kg into the femoral vein 10 minutes before 20 minutes coronary occlusion, then reperfusion
Method: In order to confirm the efficacy of compounds of the present invention on myocardial infarction and arrhythmia caused by myocardial infarction, a pharmacological study was conducted using a model of myocardial ischemia reperfusion injury in dogs for the compounds used in Example 1.
Dogs having body weights of approximately 10 kg were anesthetized with pentobarbital (trade name) (30 mg/ml/kg) followed by shaving the surgical site after starting artificial respiration. The femoral vein and femoral artery were separated followed by cannulation. The femoral vein was used as the administration route for the test substances, while the femoral artery was used to measure blood pressure.
Next, after opening the left chest, making an incision in the pericardium and exposing the left ventricle, the left coronary artery was separated. A silk suture was passed through the coronary artery to occlude, followed by the attachment of an electromagnetic flow meter probe for measuring blood flow.
In addition, a pair of ultrasound crystal probes was fixed in position to measure changes in ventricular wall length as a indicator of myocardial contractile force, and indwelling needle was installed for measuring left intraventricular pressure. Compounds of the present invention were administered into the femoral vein at 3 mg/kg (15% physiological saline solution) followed 10 minutes later by occluding the coronary artery for 20 minutes, and subsequently reperfusing the coronary artery. Myocardial contraction following ischemia-reperfusion was compared for each group based on a value of 100 for myocardial contraction prior to ischemic reperfusion. In addition, comparisons were also made with a solvent control group administered only physiological saline.

[4] = tested on: middle cerebral artery occlusion and reperfusion model; experiment: Cerebral infarction model: middle cerebral artery occlusion and reperfusion (infarct area, neurological symptoms, motor function); format: in vivo, rats (Crj: Wistar strain); parameters: Improvement of neurological symptoms* (total score): scale not given here; settings: rats, average of 10 animals; for Improvement of neurological symptoms* (total score) / Improvement of motor function (time stayed on rotor rod: seconds): single i.v. dose 3 mg/kg; for Improvement of neurological symptoms* (total score): 24 hours after occlusion, total score per Table 4, smaller = greater effect; for Improvement of motor function (time stayed on rotor rod: seconds): rotor rod 14 rotations per minute, maximum 1 minute; for Cerebral infarction reduction rate (%): single intravenous dose 3 mg/kg immediately before reperfusion, vs physiological saline group, bigger = greater effect
Method: In this example, a cerebral infarction model was prepared using rats in which reperfusion injury was induced by ischemia and then reperfusion of the middle cerebral artery using the obturator method. The efficacy of compounds of the present invention following single-dose intravenous administration at dose of 3 mg/kg was evaluated in terms of infarct area, neurological symptoms and motor function.
In addition, Edaravone (trade name, Mitsubishi Pharma Corporation) was used as a reference compound. The compounds of the present invention were stored in a refrigerator under protection from light, while Edaravone (trade name) was stored at room temperature under protection from light.
Compounds of present invention: 2 mL of physiological saline was added directly to tube containing 3 mg aliquots of a compound of the present invention to dissolve and prepare solutions having a concentration of 3 mg/2 mL. These samples were prepared at the time of use.
Edaravone: Since Edaravone is an injectable solution having a concentration of 30 mg/20 mL, the required amounts were divided up and used.
Rats: Crj: Wistar strain, males, age 7 weeks (Charles River Laboratories Japan, Inc.)
The test compounds were administered in a single dose into the tail vein using a 1 mL syringe and 27 G injection needle immediately before the reperfusion.
The rats were anesthetized by intraperitoneal administration of sodium pentobarbital at dose of 40 mg/kg (Nembutal (trade name), Dainippon Pharmaceutical Co., Ltd.), and a middle cerebral artery occlusion and reperfusion model was prepared in accordance with the method of Koizumi et al. (Non-Patent Document 2). Namely, the animals were warmed to 37° C. and held in the dorsal position while breathing spontaneously. A midline cervical incision was made, and then the right external carotid artery and right internal carotid artery were separated without damaging the vagus nerve. The right common carotid artery and right external carotid artery were ligated, and a suture was attached to the origin of the internal carotid artery in preparation for ligation and maintenance of occlusion following insertion of an obturator into the internal carotid artery. Moreover, a small incision was made in the right common carotid artery, an obturator provided with an approximately 17 mm silicon-coated suture was inserted into the internal carotid artery, and the internal carotid artery was ligated. Two hours after ligation, the obturator was removed under unanesthesia to reperfuse. Furthermore, flexion of the contralateral forelimb was confirmed 30 minutes after occlusion of the middle cerebral artery.
The following neurological symptoms were evaluated 24 hours after occlusion of the middle cerebral artery according to the evaluation method of Petullo et al. (Non-Patent Document 3). Neurological symptoms consisted of flexion of the forelimbs, torso twisting, resistance when pushing on the back of the right or left shoulder (Lateral push), circling, return of the hindlimb to the floor when lifted from the floor (Hindlimb placement), behavior when the head is faced downward on an angle (Inverted angle board) and a locomotor activity test.
Flexion of the forelimbs: flexion of the forelimbs was observed when the animals were lifted up by the tail.
Torso twisting: Torso twisting was observed when the animals were lifted up by the tail.
Lateral push: Resistance was observed when pushing on the back of the right or left shoulder.
Hindlimb placement: The animals were observed as to whether or not the hindlimb immediately returns to the floor after being lifted from the floor when placed on a horizontal floor.
locomotor activity: locomotor activity was observed when the animals were placed in a polycarbonate cage.
The aforementioned tests were scored based on the criteria described in the following documents, followed by calculation of total scores (see Table 4 “Neurological Symptom Evaluation Criteria and Scores”). […]

[5] = tested on: guinea pigs; experiment: Study of arrhythmia-inducing action in guinea pigs (without ouabain); settings: up to 1 hour after administration, no ouabain

SMILES	Ouabain (μg/kg) administered until Cardiac arrest [1]	Ouabain (μg/kg) administered until appearance of Arrhythmia [1]	Incidence of Ventricular Fibrillation (%) [2]	Incidence of Ventricular Tachycardia (%) [2]	Mortality Rate (%) [2]	Myocardial Contraction (%) (Based on a value of 100% for prior to ischemia-reperfusion) [3]	Improvement of neurological symptoms* (total score) [4]	Improvement of motor function (time stayed on rotor rod: seconds) [4]	Cerebral infarction reduction rate (%) [4]	Occurrence of Arrhythmia ([5]; dose 3 mg/kg)	Occurrence of cardiac arrest ([5]; dose 3 mg/kg)	Occurrence of Arrhythmia ([5]; dose 10 mg/kg)	Occurrence of cardiac arrest ([5]; dose 10 mg/kg)
C[N+](C)(C)CCOc1ccc(C(=O)[O-])cc1 [Compound 3, 4-(2-trimethylammonio-ethoxy)-benzoate]	235 µg/kg	169 µg/kg	12.5%	62.5%	0%	81%	6.20	50.1 s	48.7%	No	No	No	No
C[N+](C)(C)CCOc1cc(C(=O)O)ccc1O.[Cl-] [Compound 27, [2-(5-carboxy-2-hydroxy-phenoxy)-ethyl]-trimethylammonium Chloride]	258 µg/kg	180 µg/kg	0%	50.0%	0%	85%	6.75	47.5 s	53.7%	No	No	No	No

Source: patent US7687546B2, “Quaternary ammonium compound, process for producing the same, therapeutic agent for cerebrovascular disorder, and therapeutic agent for heart disease” (Activus Pharma Co., Ltd., priority 2004, dated 2010)
